In patent US20150297619A1, “METHODS AND COMPOSITIONS FOR PRESERVING THE MUCOSAL BARRIER” (priority 2014, published 2015):

Assays:
~20-kDa serine proteases = assay: Gelatin gel zymography of plasma, lung and intestine samples renatured with serine protease inhibitors; format: biochemical, rat; settings: 75 μmol/L ANGD or 100 lmol/L TLCK in renaturing and developing buffers, lung, intestine samples
Description: Protease Activity—Gelatin gel zymography was completed as previously described. When present, the luminal contents from the jejunal tissue were discarded by gentle compression of the intestine before homogenization to prevent excess digestion of the gelatin substrate in the gels by luminal proteases. Tissues from shocked animals (flushed and nonflushed) as well as controls were rinsed and blotted dry before weighing. Protein concentration was determined using the BCA kit before mixing each sample in a 1:1 ratio with loading dye (containing sodiumdodecyl sulfate (SDS), but no reducing agent). Two microgram protein/lane of intestine or 20 μg protein/lane of lung homogenates were loaded. Plasma (0.5 μL) was mixed with 2 μL loading dye and loaded into each lane.
Samples were separated by gel electrophoresis in 11% sodiumdodecyl sulfate polyacrylamide gel electrophoresis (SDS-PAGE) gelatin impregnated gels. Upon separation, gel proteins were renatured in 2.5% Triton-X 100 in water (49, 15 min) before incubation at 37° C. overnight in developing buffer (0.05 mol/L Tris base, 0.2 mol/L NaCl, 4 μmol/L ZnCl2, 5 mmol/L CaCl2.2H2O). Gels were then fixed and stained (50% methanol, 10% acetic acid, 40% water, and 0.25% Coomassie blue solution) for 3 h, destained in water to achieve appropriate contrast before digital analysis (ImageJ).
To confirm that the ˜20-kDa bands were serine proteases, gels were renatured and developed in the aforementioned buffers with the addition of either 75 μmol/L serine protease inhibitor ANGD (nafamostat mesilate) or 100 lmol/L trypsin inhibitor tosyl-lysine chloromethyl ketone (TLCK) and compared to duplicate gels that were subject to the standard renaturation procedure.

experimental shock = settings: cited from earlier work
intestinal villi = assay: Morphological analysis of intestinal villi after ex vivo ischemia (Van Gieson/hematoxylin); design: species or system rat; settings: jejunum and ileum after 2 hrs ex vivo ischemia
Description: After the two-hour ischemic incubation, intestinal pieces from segments 2 (jejunum) and 7 (ileum) were embedded in O.C.T. (Tissue Tek, Torrance, Calif.) and snap frozen in t-methyl butane in liquid nitrogen. Intestine samples from segments 2 and 7 (for protease analysis) and segment 7 (for immunoblots) were snap frozen and stored for subsequent homogenization. Morphological Analysis and TUNEL Labeling—Intestinal segments frozen in O.C.T. were cut into 5 μm sections. Sections were fixed using ice-cold methanol (8 min at −20° C.) and immediately washed four times in distilled water. Nuclei were stained by incubating sections in freshly mixed Weigert's Iron Hematoxylin A and B (Electron Microscopy Science, Hatfield, Pa.) (10 min) followed by rinsing thoroughly with water. Collagen fibers were labeled by incubating (2 min) in Van Gieson's Solution (Electron Microscopy Science). Prior to mounting, all slides were dehydrated (70, 95, 100% ethanol) and cleaned with xylene. After air-drying overnight, sections were mounted using Hard Set Mounting Media (Vector Laboratories, Burlingame, Calif.). Digital images were captured with a 20× objective (numerical aperture 0.5) and digitally montaged together after background subtraction. The separation of the mucosal epithelial layer was quantified for groups that had intact villi following the two hour ischemic period. Images were blinded and the distance between the mucosal epithelial layer and the lamina propria was measured over five lengths across a minimum of 6 villi.

[1] = system: mucin 13, occludin, and E-cadherin; assay: Immunoblots of epithelial barrier proteins in post-ischemic intestinal homogenates (segment 7); design: species or system rat; settings: ileum segment 7, two hour ex vivo ischemia
Description: Immunoblotting—To determine whether selected epithelial barrier proteins were degraded during ischemia, pre- and post-ischemic intestinal tissue homogenates (segment 7) were analyzed for relative levels of mucin 13, occludin, and E-cadherin.
Tissues were homogenized for immunoblot analysis in buffer (CelLytic, Sigma-Aldrich) with protease inhibitor cocktail (HALT, Thermo Scientific, 1:100 dilution) and centrifuged (1×10^4 g, 20 min). Protein concentration in supernatants was determined (BCA, ThermoScientific). To separate proteins by gel electrophoresis, 30 μg of protein/well were loaded in 8 or 12% resolving gels with 4% stacking gels and transferred to nitrocellulose membranes (Bio-Rad, Hercules, Calif.). Membranes were blocked for one hour with either 5% bovine serum albumin (BSA) or 5% nonfat milk in tris-buffered saline with 0.5% Tween-20 (TBS-T). Primary antibodies diluted in 1% BSA or 1% nonfat milk against mucin 13 (1:1000, extracellular domain, sc-66973 Santa Cruz Biotechnology, Santa Cruz, Calif.), E-cadherin (1:1000, intracellular domain, 33-4000, Invitrogen), occludin (1:1000, intracellular domain, 33-1500, Invitrogen), pancreatic trypsin (1:1000, sc-137077 Santa Cruz Biotechnology), or β-actin (1:1000, sc-130301, Santa Cruz Biotechnology) were incubated overnight at 4° C. After incubation, membranes were washed with TBS-T (3×, 10 min) before addition of goat anti-rabbit or rabbit anti-mouse secondary antibodies (Santa Cruz Biotechnology) diluted 1:1000 in TBS-T. Following secondary antibody incubation (60 min), the membranes were washed with TBS-T (3×) and developed.

[2] = system: ischemic small intestine segments (jejunum to ileum); assay: Ex vivo intestinal ischemia: transmural fluorescein transport across wall of flushed intestinal segments; design: species or system rat
From the text: Intestinal Ischemia—Since intestinal properties are non-homogenous, the transmural permeability was investigated over the entire length of the jejunum and ileum. Due to physical constraints of the small intestine anatomy, it is not feasible to simultaneously analyze permeability from multiple segments in vivo. Therefore, an ex vivo approach similar to previously published studies was designed to measure permeability along the length of the small intestine.
A midline incision was made to expose the intestine in anesthetized rats. The proximal end of the jejunum (approximately 5 cm distal from the ligament of Treitz) was cannulated with a female luer to barb tube connector (⅛″ inner diameter). The intestine was removed and placed in saline immediately before euthanasia. In order to focus the analysis on permeability of the intestinal wall during ischemia in the absence of luminal contents (including the digestive proteases or cytotoxic factors from food), the lumen of the intestine was flushed with 40 ml saline using pulsatile pressure. Visual examination confirmed all solid contents were removed. Next, the intestine was cut into eight equal length segments (˜8 cm) sequentially ordered from the proximal jejunum (position 1) to the distal ileum (position 8). Both ends of each segment were cannulated with Female Luer to Barb tube connectors (thus allowing entry and exit points from the intestinal lumen to be sealed completely), secured with 4-0 suture, and the exterior portion of one adaptor on each segment sealed with clay.
To determine the transmural permeability of the intestine, all 8 segments from each animal were filled with a low molecular weight tracer as a sensitive measure of early barrier breakdown prior to the initiation of ischemia, fluorescein (332 Da M.W., 20 μg/ml from 5 mg/ml stock in ethanol; 0.308 osm/L; Sigma-Aldrich, St. Louis, Mo.) mixed with saline, glucose (100 mg/ml in saline; 0.550 moles/L; 0.863 osm/L, Sigma-Aldrich), the non-metabolizing glucose analog mannitol (100 mg/ml in saline; 0.550 moles/L; 0.863 osm/L), the serine protease inhibitor tranexamic acid (31 mg/ml in saline; 0.200 moles/L; 0.508 osm/L, Sigma-Aldrich), the MMP inhibitor doxycycline hyclate (1 mg/ml in saline; 1.955×10^−3 moles/L; 0.310 osm/L, Sigma-Aldrich), or the MMP inhibitor GM 6001 [38] (1 μg/ml in saline from 1 mg/ml stock in DMSO; 2.57×10^−6 moles/L; 0.308 osm/L, Millipore, Billerica, Md.). […]
Sealed segments were rinsed in saline, individually placed in 15 ml conical tubes containing 6 ml saline, and incubated at 37° C. for 2 hours to simulate ischemic conditions. […] Plates were read in a plate reader (FilterMax F-5 Multi-mode, Molecular Devices, Sunnyvale, Calif.) for concentration of fluorescein (excitation 494/emission 521) to measure diffusion across the wall of the intestine.
Permeability Analysis—To determine the fluorescein transport across the ischemic intestinal wall, the fluorescence at time 0 was subtracted from fluorescence values at later time points to correct for background, and fluorescence values were corrected to account for the volume reduction due to sampling during the experiment. The RFU measurements were converted to equivalent moles by using the linear relationship between concentration and fluorescein fluorescence (not shown, R^2=0.999). The transport of fluorescein across the wall (measured in moles, per time) was computed as the change in fluorescence over a 30 min interval divided by 30 min.

20 kDa serine proteases = assay: Gelatin gel zymography of pre-ischemic intestinal homogenates renatured with inhibitor: serine protease bands; format: biochemical, rat; settings: inhibitor in renaturing and developing buffer: tranexamic acid 20 mM, doxycycline 1 mg/ml, GM-6001 1 ug/ml
Description: Gelatin Gel Zymography—Segments 2 and 7 from pre-ischemic intestines were homogenized (0.1 g tissue/ml homogenization buffer; PBS pH 7.4 with 0.5% hexadecyltrimethyl bromide) and centrifuged at 1.4×10^4 g for 20 minutes. Supernatants were stored at −80° C. until samples were processed.
To assess the proteolytic activities of individual proteases in intestinal tissue samples, sample volumes of 1 μl (with 2 μg of protein) were separated by gel electrophoresis in SDS-PAGE gels containing 80 μg/ml gelatin. […] The molecular weights of the proteases were estimated by use of a standard protein ladder (Invitrogen). Gels were digitized and bands were analyzed by densitometry in ImageJ (rsbweb.nih.gov/ij/).
These gels were compared to a concurrently run gel processed normally.

[3] = system: MMP-9 dimers, pro-MMP-2, MMP-2, MMP-1 or MMP-3; assay: Gelatin gel zymography of pre-ischemic intestinal homogenates renatured with inhibitor: MMP bands; format: biochemical, rat; settings: inhibitor in renaturing and developing buffer: tranexamic acid 20 mM, doxycycline 1 mg/ml, GM-6001 1 ug/ml
Description: Gelatin Gel Zymography—Segments 2 and 7 from pre-ischemic intestines were homogenized (0.1 g tissue/ml homogenization buffer; PBS pH 7.4 with 0.5% hexadecyltrimethyl bromide) and centrifuged at 1.4×10^4 g for 20 minutes. Supernatants were stored at −80° C. until samples were processed. To assess the proteolytic activities of individual proteases in intestinal tissue samples, sample volumes of 1 μl (with 2 μg of protein) were separated by gel electrophoresis in SDS-PAGE gels containing 80 μg/ml gelatin. […] The molecular weights of the proteases were estimated by use of a standard protein ladder (Invitrogen). Gels were digitized and bands were analyzed by densitometry in ImageJ (rsbweb.nih.gov/ij/). […] These gels were compared to a concurrently run gel processed normally.

MMP-1/9 = assay: Plasma MMP-1/9 activity by plate zymography after hemorrhagic shock; format: in vivo, rat; settings: compared to the HS+SAL animals
Description: Enzyme and Protease Activity Measurements—All microplate assays were performed in duplicate in 96 well black-sided flat bottom polystyrene plates (Corning, New York, N.Y.) and measured in a microplate reader (FilterMax F-5 Multi-mode, Molecular Devices, Sunnyvale, Calif.). Plasma MMP-1/9 activity was also detected by plate zymography using a protease specific substrate (American Peptide Company, Sunnyvale, Calif.).

## CS(=O)(=O)O.CS(=O)(=O)O.N=C(N)Nc1ccc(C(=O)Oc2ccc3cc(C(=N)N)ccc3c2)cc1 [ANGD, 6-amidino-2-naphthyl p-guanidinobenzoate dimethanesulfonate]
~20-kDa serine proteases; dimethanesulfonate
  serine protease (~20 kDa) band intensities: substantial decrease
~20-kDa serine proteases; listed as nafamostat mesilate, dimethanesulfonate
  serine protease (~20 kDa) band intensities: disappeared
Experimental shock; enteral treatment in the small intestine
  microhemorrhages in the intestine: reduced microhemorrhages in the intestine
Experimental shock; enteral, similar model of HS (Altshuler et al. 2012)
  MPO infiltration into the lungs: attenuate MPO infiltration into the lungs

## CNC(=O)[C@H](Cc1c[nH]c2ccccc12)NC(=O)[C@@H](CC(=O)NO)CC(C)C [GM 6001, N-[(2R)-2-(hydroxamidocarbonylmethyl)-4-methylpentanoyl]-L-tryptophan methylamide]
Intestinal villi
  intestinal villi structure: did not prevent the villi destruction
[1]
  E-cadherin levels (immunoblot): neither doxycycline nor GM 6001 were effective
  mucin 13 levels (immunoblot): neither doxycycline nor GM 6001 were effective
  occludin levels (immunoblot): neither doxycycline nor GM 6001 were effective
[2]; ex vivo ischemia, inhibitor in lumen without glucose
  transmural permeability, 90-120 min period: more effective at reducing the transmural permeability compared to either doxycycline or tranexamic acid
[2]; ex vivo ischemia, inhibitor in lumen without glucose, vs saline
  fluorescein transport rates, 30-60 min and 60-90 min periods: significantly decreased compared to the saline treated intestines
20 kDa serine proteases
  20 kDa serine protease activity bands: serine protease bands remained in all gels
[3]
  MMP gelatinase activity bands (220 kDa MMP-9 dimers, pro-MMP-2, MMP-2, 50 kDa band): reduced or eliminated

## OC[C@@H](O)[C@@H](O)[C@H](O)[C@H](O)CO [Mannitol, mannitol]
Intestinal villi
  intestinal villi structure: nor preserved villi structure
[2]; ex vivo, treatment in lumen, two-hour ischemic period
  fluorescein transport across the wall of the intestine: neither prevented fluorescein penetration

## C[C@H]1c2cccc(O)c2C(=O)C2=C(O)[C@]3(O)C(=O)C(C(N)=O)=C(O)[C@@H](N(C)C)[C@@H]3[C@@H](O)[C@@H]21 [doxycycline]
MMP-1/9
  plasma MMP-1/9 activity reduction: 85%

## tosyl-lysine chloromethyl ketone [TLCK]
~20-kDa serine proteases
  serine protease (~20 kDa) band intensities: substantial decrease
~20-kDa serine proteases; listed as tosyllysine chloromethyl ketone hydrochloride
  serine protease (~20 kDa) band intensities: disappeared
